Results published in ChEMBL document CHEMBL5523701, “Structure-based discovery of small molecule inhibitors of FKBP51-Hsp90 protein-protein interaction” (Eur J Med Chem, 2024).

What was measured:
[1] = biological target: T1, Peptidyl-prolyl cis-trans isomerase FKBP4 (Homo sapiens, UniProt Q02790); assay: Binding affinity to GST-tagged human FKBP52 expressed in Escherichia coli BL21 (DE3) immobilized in CM7 sensor chip assessed as equilibrium dissociation constant by SPR analysis
T1 sequence (Q02790 whole entry): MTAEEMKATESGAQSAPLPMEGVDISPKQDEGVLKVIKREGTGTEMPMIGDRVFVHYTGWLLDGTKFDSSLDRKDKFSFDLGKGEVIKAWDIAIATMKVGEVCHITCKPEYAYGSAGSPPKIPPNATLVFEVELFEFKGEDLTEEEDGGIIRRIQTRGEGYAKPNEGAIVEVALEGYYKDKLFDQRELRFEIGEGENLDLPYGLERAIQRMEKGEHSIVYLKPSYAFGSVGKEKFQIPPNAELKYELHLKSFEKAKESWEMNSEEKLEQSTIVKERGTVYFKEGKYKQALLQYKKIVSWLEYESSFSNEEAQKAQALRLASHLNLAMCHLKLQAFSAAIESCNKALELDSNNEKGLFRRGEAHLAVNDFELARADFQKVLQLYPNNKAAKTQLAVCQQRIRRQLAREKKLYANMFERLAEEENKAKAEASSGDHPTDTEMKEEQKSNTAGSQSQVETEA

[2] = biological target: T2, Peptidyl-prolyl cis-trans isomerase FKBP5 (Homo sapiens, UniProt Q13451); assay: Inhibition of GST-tagged human FKBP51 expressed in Escherichia coli BL21 (DE3) using NH2-EDASRMEEVD-COOH peptide as substrate preincubated for 15 mins followed by substrate addition measured after 15 mins by Alpha Screen assay
T2 sequence (Q13451 whole entry): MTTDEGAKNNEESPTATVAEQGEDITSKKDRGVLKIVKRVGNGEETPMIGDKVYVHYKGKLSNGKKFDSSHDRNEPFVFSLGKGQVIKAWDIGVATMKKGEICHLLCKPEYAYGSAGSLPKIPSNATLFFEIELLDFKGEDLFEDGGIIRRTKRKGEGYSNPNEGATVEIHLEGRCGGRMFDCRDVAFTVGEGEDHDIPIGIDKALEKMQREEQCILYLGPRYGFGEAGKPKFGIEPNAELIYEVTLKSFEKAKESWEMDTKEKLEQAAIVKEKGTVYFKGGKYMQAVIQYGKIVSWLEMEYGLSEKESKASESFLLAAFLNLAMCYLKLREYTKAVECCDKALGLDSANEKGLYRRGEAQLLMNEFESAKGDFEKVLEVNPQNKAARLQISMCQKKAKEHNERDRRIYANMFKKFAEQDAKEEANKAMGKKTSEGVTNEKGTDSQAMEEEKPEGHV

[3] = biological target: T3, Mitochondrial import receptor subunit TOM34 (Homo sapiens, UniProt Q15785); assay: Inhibition of GST-tagged human TOM34 expressed in Escherichia coli BL21 (DE3) using NH2-EDASRMEEVD-COOH peptide as substrate preincubated for 15 mins followed by substrate addition measured after 15 mins by Alpha Screen assay
T3 sequence (Q15785 whole entry): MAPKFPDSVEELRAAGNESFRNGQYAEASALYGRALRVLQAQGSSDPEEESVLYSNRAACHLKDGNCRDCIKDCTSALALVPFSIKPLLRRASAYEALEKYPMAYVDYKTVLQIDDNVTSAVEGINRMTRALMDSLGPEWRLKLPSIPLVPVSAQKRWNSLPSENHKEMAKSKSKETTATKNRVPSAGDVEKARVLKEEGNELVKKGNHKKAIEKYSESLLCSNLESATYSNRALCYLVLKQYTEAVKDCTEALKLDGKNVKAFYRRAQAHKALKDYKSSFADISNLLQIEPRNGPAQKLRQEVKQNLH

[4] = biological target: T4, AH receptor-interacting protein (Homo sapiens, UniProt O00170); assay: Inhibition of GST-tagged human AIP expressed in Escherichia coli BL21 (DE3) using NH2-EDASRMEEVD-COOH peptide as substrate preincubated for 15 mins followed by substrate addition measured after 15 mins by Alpha Screen assay
T4 sequence (O00170 whole entry): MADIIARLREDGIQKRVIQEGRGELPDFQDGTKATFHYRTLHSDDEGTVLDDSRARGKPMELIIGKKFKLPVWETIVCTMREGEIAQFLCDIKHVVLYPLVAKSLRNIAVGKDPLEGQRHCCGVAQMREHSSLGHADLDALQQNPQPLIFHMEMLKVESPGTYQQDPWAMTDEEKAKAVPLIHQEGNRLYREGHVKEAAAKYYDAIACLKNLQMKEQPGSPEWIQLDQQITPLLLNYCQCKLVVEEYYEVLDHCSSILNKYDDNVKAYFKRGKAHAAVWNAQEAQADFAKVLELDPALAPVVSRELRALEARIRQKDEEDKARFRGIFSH

[5] = biological target: T5, Mitochondrial import receptor subunit TOM70 (Homo sapiens, UniProt O94826); assay: Inhibition of GST-tagged human TOM70 expressed in Escherichia coli BL21 (DE3) using NH2-EDASRMEEVD-COOH peptide as substrate preincubated for 15 mins followed by substrate addition measured after 15 mins by Alpha Screen assay
T5 sequence (O94826 whole entry): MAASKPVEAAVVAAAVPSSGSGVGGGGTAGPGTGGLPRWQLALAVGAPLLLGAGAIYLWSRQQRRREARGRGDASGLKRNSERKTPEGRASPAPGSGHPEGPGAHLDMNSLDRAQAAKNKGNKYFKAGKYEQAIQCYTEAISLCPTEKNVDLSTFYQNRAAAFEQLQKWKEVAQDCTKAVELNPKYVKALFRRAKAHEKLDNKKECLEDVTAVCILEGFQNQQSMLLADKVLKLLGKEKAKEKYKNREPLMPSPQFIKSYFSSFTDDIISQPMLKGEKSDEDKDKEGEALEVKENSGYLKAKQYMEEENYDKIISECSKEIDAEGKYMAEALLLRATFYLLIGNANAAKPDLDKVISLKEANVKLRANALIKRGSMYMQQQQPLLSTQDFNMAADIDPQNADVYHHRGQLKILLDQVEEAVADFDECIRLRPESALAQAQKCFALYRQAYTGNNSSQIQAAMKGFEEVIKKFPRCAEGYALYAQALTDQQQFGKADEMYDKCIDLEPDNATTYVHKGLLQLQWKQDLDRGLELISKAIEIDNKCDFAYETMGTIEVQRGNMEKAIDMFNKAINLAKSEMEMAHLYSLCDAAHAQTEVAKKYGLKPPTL

[6] = biological target: Small glutamine-rich tetratricopeptide repeat-containing protein alpha (Homo sapiens, UniProt O43765); assay: Inhibition of GST-tagged human SGTA expressed in Escherichia coli BL21 (DE3) using NH2-EDASRMEEVD-COOH peptide as substrate preincubated for 15 mins followed by substrate addition measured after 15 mins by Alpha Screen assay
HEK293 = assay: Induction of cell proliferation in HEK293 cells at 10 uM measured for 1 to 4 hrs by MTT assay relative to control; assay type: functional, Homo sapiens; conditions: time 1-4 hrs
[7] = Inhibition of GST-tagged FKBP51 N381Y mutant (unknown origin) using NH2-EDASRMEEVD-COOH peptide as substrate preincubated for 15 mins followed by substrate addition measured after 15 mins by Alpha Screen assay; parameters: species or system Homo sapiens
[8] = Solubility of compound in cell culture media upto 30 uM; assay type: physicochemical

Small glutamine-rich tetratricopeptide repeat-containing protein alpha, sequence (O43765 whole entry): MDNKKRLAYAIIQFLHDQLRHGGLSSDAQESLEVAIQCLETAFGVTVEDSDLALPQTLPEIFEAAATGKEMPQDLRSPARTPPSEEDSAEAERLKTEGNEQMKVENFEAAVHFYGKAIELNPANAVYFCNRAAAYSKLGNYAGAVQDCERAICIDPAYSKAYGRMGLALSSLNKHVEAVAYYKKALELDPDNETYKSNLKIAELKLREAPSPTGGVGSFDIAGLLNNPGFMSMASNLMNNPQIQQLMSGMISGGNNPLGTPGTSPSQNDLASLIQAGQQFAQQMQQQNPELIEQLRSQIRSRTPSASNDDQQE

Kd [1] [µM]	IC50 [2] [µM]	IC50 [3] [µM]	IC50 [4] [µM]	IC50 [5] [µM]	IC50 [6] [µM]	IC50 [7] [µM]	solubility [8]	Compound	Activity (HEK293) [%]
745	1.5	4	6	5	6	0.5	Soluble	COC(=O)c1c(NC(=O)CSc2nnc(-c3ccco3)c(-c3ccco3)n2)sc(C)c1C	10
		3	7	1.2	2			Cc1sc(NC(=O)CCCC(=O)Nc2sc(C)c(C)c2C(N)=O)c(C(N)=O)c1C	
